The results in this text go back to patent US8987195B2 (priority 2012, dated 2015).

Like-named read-outs stand apart in the source and are kept apart here.

The target in assay [1] is HCV NS3/4A protease A156T mutant (Hepatitis C virus genotype 1b, UniProt P26663, A1182T). The experiment in a line: HCV NS3/4A protease time-resolved fluorescence (TRF) assay, Ki against A156T mutant. The class given is biochemical. To be noted: read-out: IC50 [gt-1b A156T]. Summed up: (§1)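 Enzyme 0.2 nM 1b / 0.4 nM A156T / 0.025 nM 3a; 30 min preinc. w/ cpd; 25 nM TRF peptide; 2.5 h RT; ex 340/em 615 time-delayed; 4-param IC50 → Ki = IC50/(1+[S]/KM).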

The subject of another assay is HCV genotype 1b replicon. The experiment in a line: HCV replicon assay, genotype 1b replicon EC50. The class given is cell-based, Hepatitis C virus. Particulars: Hepatitis C virus, read-out: EC50 [gt-1b]. Summed up: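 Compound dilution series incubated 24-48 h, G418 absent, with HCV genotype 1b replicon cell lines kept under G418 selection beforehand. Luciferase signal or replicon RNA, by ^32P hybridization/protection or TaqMan normalized to cyclophilin A, was measured after washing and lysis. Four-parameter fitting against DMSO control gave EC50.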
On the technique in general: In antiviral work, replicon cells carry a viral genome segment that copies itself.

The target in assay [2] is HCV NS3/4A protease genotype 3a (Hepatitis C virus genotype 3a, UniProt Q81495). The experiment in a line: HCV NS3/4A protease time-resolved fluorescence (TRF) assay, Ki against genotype 3a. The assay is classed as biochemical. Summed up: as §1
Assay [3] has as its target HCV NS3/4A protease genotype 1b (Hepatitis C virus genotype 1b, UniProt P26663). Nature of the assay: HCV NS3/4A protease time-resolved fluorescence (TRF) assay, Ki against genotype 1b. The assay is classed as biochemical. Summed up: as §1
[4] abbreviates: NS3/4A protease TRF assay, A156T mutant enzyme 0.4 nM.
The mark [5] stands for this setting: IC50 [gt-1b], NS3/4A protease TRF assay, genotype 1b enzyme 0.2 nM.
[6] abbreviates: NS3/4A gt-1b A156T mutant, enzyme 0.4 nM, K+ salt.
The mark [7] stands for this setting: IC50 [gt-1b] (nM), NS3/4A genotype 1b, enzyme 0.2 nM, K+ salt.
The mark [8] stands for this setting: NS3/4A gt-1b A156T mutant, enzyme 0.4 nM.
Where [9] appears, read: IC50 [gt-1b] (nM), NS3/4A genotype 1b, enzyme 0.2 nM.
The mark [10] stands for this setting: NS3/4A protease TRF assay, A156T mutant enzyme 0.4 nM, K+ salt.
[11] abbreviates: HCV replicon, genotype 1b, K+ salt.
[12] abbreviates: IC50 [gt-1b], NS3/4A protease TRF assay, genotype 1b enzyme 0.2 nM, K+ salt.

As a reminder, the IC50 is the concentration needed to halve the response being measured. The EC50 is the concentration needed to bring the measured effect to its halfway point. Consider `COc1ccc2nc(C(F)(F)F)c3c(c2c1)[C@H](F)C[C@]1(C[C@H]2C(=O)N[C@]4(C(=O)NS(=O)(=O)C5(C)CC5)C[C@H]4/C=C\CCCCC[C@H](NC(=O)OCC(C)C)C(=O)N2C1)O3` [Example 461, 2-methylpropyl [(1′R,2S,6S,12Z,13aS,14aR,16aS)-1′-fluoro-9′-methoxy-14a-{[(1-methylcyclopropyl)sulfonyl]carbamoyl}-5,16-dioxo-5′-(trifluoromethyl)-1,1′,2′,5,6,7,8,9,10,11,13a,14,14a,15,16,16a-hexadecahydrospiro[cyclopropa[e]pyrrolo[1,2-a][1,4]diazacyclopentadecine-2,3′-pyrano[2,3-c]quinolin]-6-yl]carbamate], for which the half-maximal inhibitory concentration (IC50) in assay [1] (setting [4]) stood at 0.435 nM; in assay [2], 0.624 nM; in assay [3] (setting [5]), 0.029 nM. In addition, the EC50 with HCV genotype 1b replicon (HCV replicon, genotype 1b) came out at 3.29 nM.

`COc1ccc2nc(C)c3c(c2c1)C(F)(F)C[C@]1(C[C@H]2C(=O)N[C@]4(C(=O)NS(=O)(=O)C5(C)CC5)C[C@H]4/C=C\CCCCC[C@H](NC(=O)OCC(C)C)C(=O)N2C1)O3` [Example 266, 2-methylpropyl [(2S,6S,12Z,13aS,14aR,16aS)-1′,1′-difluoro-9′-methoxy-5′-methyl-14a-{[(1-methylcyclopropyl)sulfonyl]carbamoyl}-5,16-dioxo-1,1′,2′,5,6,7,8,9,10,11,13a,14,14a,15,16,16a-hexadecahydrospiro[cyclopropa[e]pyrrolo[1,2-a][1,4]diazacyclopentadecine-2,3′-pyrano[2,3-c]quinolin]-6-yl]carbamate]: the IC50 in assay [1] (setting [6]) amounted to 0.384 nM; in assay [2], 2.1 nM; in assay [3] (setting [7]), 0.014 nM. For the same compound, the EC50 in the assay with HCV genotype 1b replicon (genotype 1b replicon, K+ salt) worked out at 4.47 nM.

Take `COc1ccc2nc(C)c3c(c2c1)CC[C@]1(C[C@H]2C(=O)N[C@]4(C(=O)NS(=O)(=O)C5(C)CC5)C[C@H]4/C=C\CCCCC[C@H](NC(=O)OC4(C)COC4)C(=O)N2C1)O3` [Example 198, 3-methyloxetan-3-yl [(2R,6S,12Z,13aS,14aR,16aS)-9′-methoxy-5′-methyl-14a-{[(1-methylcyclopropyl)sulfonyl]carbamoyl}-5,16-dioxo-1,1′,2′,5,6,7,8,9,10,11,13a,14,14a,15,16,16a-hexadecahydrospiro[cyclopropa[e]pyrrolo[1,2-a][1,4]diazacyclopentadecine-2,3′-pyrano[2,3-c]quinolin]-6-yl]carbamate]: the 50% inhibitory concentration (IC50) in assay [1] (setting [8]) amounted to 0.104 nM; in assay [2], 0.561 nM; in assay [3] (setting [9]), 0.006 nM. Moreover, in the assay with HCV genotype 1b replicon (genotype 1b replicon), the concentration giving a half-maximal response (EC50) was 9.19 nM.

With `CCc1nc2ccc(OC)cc2c2c1O[C@]1(CC2)C[C@H]2C(=O)N[C@]3(C(=O)NS(=O)(=O)C4(C)CC4)C[C@H]3/C=C\CCCCC[C@H](NC(=O)c3cc(C)cs3)C(=O)N2C1` [Example 483, (2R,6S,12Z,13aS,14aR,16aS)-5′-ethyl-9′-methoxy-N-[(1-methylcyclopropyl)sulfonyl]-6-{[(4-methylthiophen-2-yl)carbonyl]amino}-5,16-dioxo-1,1′,2′,6,7,8,9,10,11,13a,14,15,16,16a-tetradecahydrospiro[cyclopropa[e]pyrrolo[1,2-a][1,4]diazacyclopentadecine-2,3′-pyrano[2,3-c]quinoline]-14a(5H)-carboxamide], the half-inhibitory concentration (IC50) in assay [1] (setting [4]) came out at 0.0969 nM; in assay [2] it was 0.667 nM; in assay [3] (setting [5]) it was 0.008 nM. Moreover, the EC50 with HCV genotype 1b replicon (HCV replicon, genotype 1b) was determined as 0.438 nM.

Regarding `Cc1nc2ccc(Cl)cc2c2c1O[C@]1(CC2)C[C@H]2C(=O)N[C@]3(C(=O)NS(=O)(=O)C4(C)CC4)C[C@H]3/C=C\CCCCC[C@H](NC(=O)OCC(C)C)C(=O)N2C1` [Example 189, 2-methylpropyl [(2R,6S,12Z,13aS,14aR,16aS)-9′-chloro-5′-methyl-14a-{[(1-methylcyclopropyl)sulfonyl]carbamoyl}-5,16-dioxo-1,1′,2′,5,6,7,8,9,10,11,13a,14,14a,15,16,16a-hexadecahydrospiro[cyclopropa[e]pyrrolo[1,2-a][1,4]diazacyclopentadecine-2,3′-pyrano[2,3-c]quinolin]-6-yl]carbamate], the IC50 was determined as 0.062 nM in assay [1] (setting [6]), 0.394 nM in assay [2] and 0.002 nM in assay [3] (setting [7]). The EC50 in the assay on HCV genotype 1b replicon (genotype 1b replicon, K+ salt) was found to be 6.42 nM.

On to `COc1ccc2nc(C)c3c(c2c1)CC[C@]1(C[C@H]2C(=O)N[C@]4(C(=O)NS(=O)(=O)C5(C)CC5)C[C@H]4/C=C\CCCCC[C@H](NC(=O)OC4CCC4)C(=O)N2C1)O3` [Example 199, cyclobutyl [(2R,6S,12Z,13aS,14aR,16aS)-9′-methoxy-5′-methyl-14a-{[(1-methylcyclopropyl)sulfonyl]carbamoyl}-5,16-dioxo-1,1′,2′,5,6,7,8,9,10,11,13a,14,14a,15,16,16a-hexadecahydrospiro[cyclopropa[e]pyrrolo[1,2-a][1,4]diazacyclopentadecine-2,3′-pyrano[2,3-c]quinolin]-6-yl]carbamate], for which the results for the half-maximal inhibitory concentration (IC50) in assay [1] (setting [6]), in assay [2] and in assay [3] (setting [7]) were 0.0462 nM, 0.287 nM and 0.003 nM, respectively. In addition, the EC50 in the assay with HCV genotype 1b replicon (genotype 1b replicon, K+ salt) stood at 1 nM.

Regarding `CC1(S(=O)(=O)NC(=O)[C@@]23C[C@H]2/C=C\CCCCC[C@H](NC(=O)OC2C[C@@H]4C[C@@H]4C2)C(=O)N2C[C@@]4(CCc5c(c(C(F)(F)F)nc6ccc(OCF)cc56)O4)C[C@H]2C(=O)N3)CC1` (stereo partly drawn) [Example 501, (1R,5S)-bicyclo[3.1.0]hex-3-yl [(2R,6S,12Z,13aS,14aR,16aS)-9′-(fluoromethoxy)-14a-{[(1-methylcyclopropyl)sulfonyl]carbamoyl}-5,16-dioxo-5′-(trifluoromethyl)-1,1′,2′,5,6,7,8,9,10,11,13a,14,14a,15,16,16a-hexadecahydrospiro[cyclopropa[e]pyrrolo[1,2-a][1,4]diazacyclopentadecine-2,3′-pyrano[2,3-c]quinolin]-6-yl]carbamate], the IC50 in assay [1] (setting [10]) amounted to 0.6 nM; in assay [2] it was 0.206 nM; in assay [3] (setting [12]) it was 0.004 nM. Further, the half-maximal effective concentration (EC50) with HCV genotype 1b replicon (setting [11]) is 3.7 nM.

Regarding `CC(C)(C)OC(=O)N[C@H]1CCCCC/C=C\[C@@H]2C[C@@]2(C(=O)NS(=O)(=O)C2(C)CC2)NC(=O)[C@@H]2C[C@]3(CCc4c(c(C(F)(F)F)nc5ccc(OCCCN6CCOCC6)cc45)O3)CN2C1=O` [Example 50, tert-Butyl ((2R,6S,13aS,14aR,16aS,Z)-14a-(((1-methylcyclopropyl)sulfonyl)carbamoyl)-9′-(3-morpholinopropoxy)-5,16-dioxo-5′-(trifluoromethyl)-1′,2′,3,5,6,7,8,9, 10,11,13a,14,14a,15,16,16a-hexadecahydro-1H-spiro[cyclopropa[e]pyrrolo[1,2-a][1,4]diazacyclopentadecine-2,3′-pyrano[2,3-c]quinolin]-6-yl)carbamate], the results for the half-inhibitory concentration (IC50) in assay [1] (setting [8]), in assay [2] and in assay [3] (setting [9]) were 0.0786 nM, 0.0965 nM and 0.01 nM, respectively. Also, the EC50 in the assay on HCV genotype 1b replicon (genotype 1b replicon) was found to be 0.284 nM.

Take `CCc1nc2ccc(OCCCOC)cc2c2c1O[C@]1(CC2)C[C@H]2C(=O)N[C@]3(C(=O)NS(=O)(=O)C4(C)CC4)C[C@H]3/C=C\CCCCC[C@H](NC(=O)OCC(C)(C)C)C(=O)N2C1` [Example 488, 2,2-dimethylpropyl [(2R,6S,12Z,13aS,14aR,16aS)-5′-ethyl-9′-(3-methoxypropoxy)-14a-{[(1-methylcyclopropyl)sulfonyl]carbamoyl}-5,16-dioxo-1,1′,2′,5,6,7,8,9,10,11,13a,14,14a,15,16,16a-hexadecahydrospiro[cyclopropa[e]pyrrolo[1,2-a][1,4]diazacyclopentadecine-2,3′-pyrano[2,3-c]quinolin]-6-yl]carbamate]: the IC50 worked out at 0.136 nM in assay [1] (setting [10]), 0.486 nM in assay [2] and 0.004 nM in assay [3] (setting [12]). In addition, the EC50 with HCV genotype 1b replicon (setting [11]) is 0.412 nM.

Turning to `CC[C@H](C)OC(=O)N[C@H]1CCCCC/C=C\[C@@H]2C[C@@]2(C(=O)NS(=O)(=O)C2(C)CC2)NC(=O)[C@@H]2C[C@]3(CCc4c(c(C(F)(F)F)nc5ccc(OC)cc45)O3)CN2C1=O` [Example 460, (2S)-butan-2-yl [(2R,6S,12Z,13aS,14aR,16aS)-9′-methoxy-14a-{[(1-methylcyclopropyl)sulfonyl]carbamoyl}-5,16-dioxo-5′-(trifluoromethyl)-1,1′,2′,5,6,7,8,9,10,11,13a,14,14a,15,16,16a-hexadecahydrospiro[cyclopropa[e]pyrrolo[1,2-a][1,4]diazacyclopentadecine-2,3′-pyrano[2,3-c]quinolin]-6-yl]carbamate], the IC50 is 2.74 nM in assay [1] (setting [10]), 1.78 nM in assay [2] and 0.034 nM in assay [3] (setting [12]). Moreover, the EC50 in the assay on HCV genotype 1b replicon (setting [11]) was found to be 2.99 nM.
